In patent publication US20260027125A1, “AN ANTIBACTERIAL PARENTERAL FORMULATION AND METHODS THEREOF” (BUGWORKS RESEARCH INDIA PVT. LTD., priority 2022, published 2026):

Assays:
[1] = counter ion selected for salt screening; cited from earlier work
[2] = Solubility of free amine in solvents; format: physicochemical
[3] = pKa (selection of counterions); format: physicochemical; settings: weakly basic nature of the compound
[4] = Solubility study without acetic acid; format: physicochemical; settings: aqueous with cosolvent or surfactant or cyclodextrin, combination of ascorbic acid and lactic acid, read-out: solubilized at a concentration of

| SMILES | pKa (first value) [1] | solubility in solvents [2] | pKa [3] | solubility [4] |
| --- | --- | --- | --- | --- |
| CCS(=O)(=O)O [ethane sulfonic acid] | 1.68 | – | – | – |
| Cn1c(=O)ccc2ccc(F)c(CCNC[C@H]3CN(c4cnc5c(n4)NC(=O)CO5)C(=O)O3)c21 [compound of Formula (I), (S)-6-(5-(((2-(7-fluoro-1-methyl-2-oxo-1,2-dihydroquinolin-8-yl)ethyl)amino)methyl)-2-oxooxazolidin-3-yl)-2H-pyrazino[2,3-b][1,4]oxazin-3(4H)-one] | – | soluble only in dichloromethane and methanol (1:1) mixture | ~6.81 | 20 mg/mL |
